Experimental data: patent US9101726B2, “Stem cell immune modulation methods of use and apparatus” (The Board of Trustees of the University of Illinois, priority 2009, dated 2015)

Experiments:
NO production in CB-SC = assay: Real time assay for NO production in CB-SC; assay type: cell-based, human
[1] = tested on: CD4+CD25+CD62L+CD69+ Tregs; assay: Co-culture of PHA-stimulated lymphocytes with CB-SC in presence of CPM inhibitor and B1R antagonist; assay type: cell-based, human; conditions: MGTA 10 μM, DALKD 2 μM
Source text: To examine the cell-cell contacting effects and CPM and B1R contribution to immune modulation of CB-SC on human Tregs, we performed co-culture experiments in the presence of CPM specific inhibitor MGTA and B1R specific inhibitor DALKD. Lymphocytes plated in trans-wells served as controls. […] Data are representative of five experiments.

allogeneic lymphocytes = assay: Suppression of CB-SC on allogeneic lymphocytes in presence of inhibitors; assay type: cell-based, human
[2] = tested on: DNA methyltransferase (DNMT) activity of lymphocytes; assay: Regulation of DNA methyltransferase activity of lymphocytes by CB-SC-derived NO; assay type: cell-based
nitric oxide synthase = assay: Blocking of the inhibitory effect of stem cells on lymphocytes with nitric oxide synthase inhibitor; assay type: cell-based
[3] = in combination with B1R activator DAKD

[Des-Arg10, Leu9] kallidin [DALKD]
NO production in CB-SC (NO production in CB-SC; [3]): inhibited | positive percentage of CD4+CD25+CD62L+CD69+ Tregs [1]: decrease

CC(=N)NCc1cccc(CN)c1 [1400 W]
NO production in CB-SC (NO production in CB-SC; [3]): inhibited | suppression of CB-SC on allogeneic lymphocytes (allogeneic lymphocytes): reverse the suppression | epigenetic regulation on DNMT activity of lymphocytes by CB-SC-derived NO [2]: significantly blocked

des-Arg 10-bradykinin (KRPPGFSPF) [DAKD]
NO production in CB-SC (NO production in CB-SC; agent alone): increased

NC(=NCCC[C@H](N)C(=O)O)N[N+](=O)[O-] [L-NNA, N-omega-nitro-L-arginine]
inhibitory effect of stem cells mediated by nitric oxide (NO) (nitric oxide synthase): blocking
